Experimental data taken from article PMC4278837, “A Cyclic Peptidic Serine Protease Inhibitor: Increasing Affinity by Increasing Peptide Flexibility” (PLoS ONE, 2014).
Like-named read-outs stand apart in the source and are kept apart here. Bridge positions count the residues as written; N and C are the ends. Square brackets hold non-standard residues; d marks the D form. Peptide text beside a SMILES is read from it. Phe(4-guanidino) = N=C(N)Nc1ccc(C[C@H](N)C(=O)O)cc1

What was measured:
huPA-H99Y [1] = target: T1, huPA-H99Y (Homo sapiens, UniProt P00749, H272Y); assay: Ki for inhibition of huPA-H99Y, chromogenic substrate S-2444; format: biochemical; conditions: 37°C; means ± S.D.; read-out: K i for inhibition of huPA-H99Y
T1 construct: To ensure that the uPAs purified from the conditioned media were completely in the two-chain form, they were treated with plasmin; hexa-His (C); made in house; host or cells: HEK293 6E suspension cells
Text: (§1) Determination of Ki values
(§2) The initial reaction velocities were monitored at an absorbance of 405 nm. The inhibition constants (K i) were subsequently determined from the non-linear regression analyses of plots for V i/V o versus [I]0, using Equation 2, derived under assumption of competitive inhibition:
(§3) [drawing 2] (2) where V i and V 0 are the reaction velocities in the presence and absence of inhibitor, respectively; [S]0 and [I]0 are the substrate and inhibitor concentrations, respectively; K M is K M for substrate hydrolysis by each protease. In Equation 2, it is assumed that [S]free ≈ [S]0 and [I]free ≈ [I]0.

huPA-H99Y R35A = target: T2, huPA-H99Y R35A (Homo sapiens, UniProt P00749, H272Y/R198A); assay: Ki for inhibition of huPA-H99Y-R35A, chromogenic substrate; format: biochemical; conditions: 37°C; means ± S.D.; read-out: K i for inhibition of huPA-H99Y-R35A
T2 construct: To ensure that the uPAs purified from the conditioned media were completely in the two-chain form, they were treated with plasmin; hexa-His (C); made in house; host or cells: HEK293 6E suspension cells
Text: as §1, §2, §3

huPA-H99Y V41A = target: T3, huPA-H99Y V41A (Homo sapiens, UniProt P00749, H272Y/V208A); assay: Ki for inhibition of huPA-H99Y-V41A, chromogenic substrate; format: biochemical; conditions: 37°C; means ± S.D.; read-out: K i for inhibition of huPA-H99Y-V41A
T3 construct: To ensure that the uPAs purified from the conditioned media were completely in the two-chain form, they were treated with plasmin; hexa-His (C); made in house; host or cells: HEK293 6E suspension cells
Text: as §1, §2, §3

muPA wt [2] = target: T4, muPA wt (Mus musculus, UniProt P06869); assay: Ki for inhibition of muPA wt, chromogenic substrate; format: biochemical, murine; conditions: means ± S.D.; read-out: K i for inhibition of muPA wt
T4 construct: To ensure that the uPAs purified from the conditioned media were completely in the two-chain form, they were treated with plasmin; hexa-His (C); made in house; host or cells: HEK293 6E suspension cells
T4 sequence (P06869 180-433 limits assumed): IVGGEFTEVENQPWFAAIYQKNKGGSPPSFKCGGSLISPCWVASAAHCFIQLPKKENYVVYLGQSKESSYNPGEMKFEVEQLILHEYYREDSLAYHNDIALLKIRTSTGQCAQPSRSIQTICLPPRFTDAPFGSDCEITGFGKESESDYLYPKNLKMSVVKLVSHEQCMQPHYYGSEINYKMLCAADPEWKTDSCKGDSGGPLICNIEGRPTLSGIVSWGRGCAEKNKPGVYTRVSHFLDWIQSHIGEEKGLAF
T4 sequence (P06869 21-178 partner limits assumed): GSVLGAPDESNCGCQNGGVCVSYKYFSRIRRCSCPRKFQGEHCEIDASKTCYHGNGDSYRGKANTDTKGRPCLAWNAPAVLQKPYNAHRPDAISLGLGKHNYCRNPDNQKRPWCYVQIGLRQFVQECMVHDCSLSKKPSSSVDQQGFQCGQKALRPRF
Text: as §1, §2, §3

muPA K41A = target: T5, muPA K41A (Mus musculus, UniProt P06869, K210A); assay: Ki for inhibition of muPA-K41A, chromogenic substrate; format: biochemical, murine; conditions: means ± S.D.; read-out: K i for inhibition of muPA-K41A
T5 construct: To ensure that the uPAs purified from the conditioned media were completely in the two-chain form, they were treated with plasmin; hexa-His (C); made in house; host or cells: HEK293 6E suspension cells
T5 sequence (P06869 180-433 K210A): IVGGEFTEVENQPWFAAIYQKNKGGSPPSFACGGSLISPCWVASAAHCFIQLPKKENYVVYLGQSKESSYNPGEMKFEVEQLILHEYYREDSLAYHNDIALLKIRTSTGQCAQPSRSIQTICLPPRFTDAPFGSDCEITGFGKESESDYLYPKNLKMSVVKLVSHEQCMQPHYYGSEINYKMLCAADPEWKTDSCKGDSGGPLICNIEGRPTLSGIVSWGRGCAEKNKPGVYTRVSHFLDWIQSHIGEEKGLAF
T5 sequence (P06869 21-178 partner limits assumed): as the sequence (P06869 21-178 partner limits assumed) above
Text: as §1, §2, §3

muPA Y99A = target: T6, muPA Y99A (Mus musculus, UniProt P06869, Y274A); assay: Ki for inhibition of muPA-Y99A, chromogenic substrate; format: biochemical, murine; conditions: means ± S.D.; read-out: K i for inhibition of muPA-Y99A
T6 construct: To ensure that the uPAs purified from the conditioned media were completely in the two-chain form, they were treated with plasmin; hexa-His (C); made in house; host or cells: HEK293 6E suspension cells
T6 sequence (P06869 180-433 Y274A): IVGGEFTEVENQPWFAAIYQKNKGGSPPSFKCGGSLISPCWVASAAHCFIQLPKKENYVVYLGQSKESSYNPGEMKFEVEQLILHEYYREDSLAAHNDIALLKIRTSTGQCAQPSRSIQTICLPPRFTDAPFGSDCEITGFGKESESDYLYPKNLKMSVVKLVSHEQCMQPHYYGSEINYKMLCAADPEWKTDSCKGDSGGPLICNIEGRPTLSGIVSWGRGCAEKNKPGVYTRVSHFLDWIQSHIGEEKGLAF
T6 sequence (P06869 21-178 partner limits assumed): as the sequence (P06869 21-178 partner limits assumed) above
Text: as §1, §2, §3

muPA K143A = target: T7, muPA K143A (Mus musculus, UniProt P06869, K322A); assay: Ki for inhibition of muPA-K143A, chromogenic substrate; format: biochemical, murine; conditions: means ± S.D.; read-out: K i for inhibition of muPA-K143A
T7 construct: To ensure that the uPAs purified from the conditioned media were completely in the two-chain form, they were treated with plasmin; hexa-His (C); made in house; host or cells: HEK293 6E suspension cells
T7 sequence (P06869 180-433 K322A): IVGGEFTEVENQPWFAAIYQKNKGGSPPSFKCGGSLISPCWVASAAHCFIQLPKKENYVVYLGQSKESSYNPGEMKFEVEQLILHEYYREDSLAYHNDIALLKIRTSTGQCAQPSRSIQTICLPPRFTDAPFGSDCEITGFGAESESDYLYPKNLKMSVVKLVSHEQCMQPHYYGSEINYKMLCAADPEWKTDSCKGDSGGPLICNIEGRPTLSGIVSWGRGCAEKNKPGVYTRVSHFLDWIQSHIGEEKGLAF
T7 sequence (P06869 21-178 partner limits assumed): as the sequence (P06869 21-178 partner limits assumed) above
Text: as §1, §2, §3

muPA S190A = target: T8, muPA S190A (Mus musculus, UniProt P06869, S373A); assay: Ki for inhibition of muPA-S190A, chromogenic substrate; format: biochemical, murine; conditions: means ± S.D.; read-out: K i for inhibition of muPA-S190A
T8 construct: To ensure that the uPAs purified from the conditioned media were completely in the two-chain form, they were treated with plasmin; hexa-His (C); made in house; host or cells: HEK293 6E suspension cells
T8 sequence (P06869 180-433 S373A): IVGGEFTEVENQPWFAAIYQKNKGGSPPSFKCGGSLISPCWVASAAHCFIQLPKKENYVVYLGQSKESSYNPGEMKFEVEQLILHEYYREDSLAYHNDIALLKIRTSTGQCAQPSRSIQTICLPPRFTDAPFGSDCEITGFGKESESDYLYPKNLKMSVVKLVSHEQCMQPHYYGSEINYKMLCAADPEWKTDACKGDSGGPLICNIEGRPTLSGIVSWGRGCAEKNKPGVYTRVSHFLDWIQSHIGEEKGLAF
T8 sequence (P06869 21-178 partner limits assumed): as the sequence (P06869 21-178 partner limits assumed) above
Text: as §1, §2, §3

muPA V213T = target: T9, muPA V213T (Mus musculus, UniProt P06869, V396T); assay: Ki for inhibition of muPA-V213T, chromogenic substrate; format: biochemical, murine; conditions: means ± S.D.; read-out: K i for inhibition of muPA-V213T
T9 construct: To ensure that the uPAs purified from the conditioned media were completely in the two-chain form, they were treated with plasmin; hexa-His (C); made in house; host or cells: HEK293 6E suspension cells
T9 sequence (P06869 180-433 V396T): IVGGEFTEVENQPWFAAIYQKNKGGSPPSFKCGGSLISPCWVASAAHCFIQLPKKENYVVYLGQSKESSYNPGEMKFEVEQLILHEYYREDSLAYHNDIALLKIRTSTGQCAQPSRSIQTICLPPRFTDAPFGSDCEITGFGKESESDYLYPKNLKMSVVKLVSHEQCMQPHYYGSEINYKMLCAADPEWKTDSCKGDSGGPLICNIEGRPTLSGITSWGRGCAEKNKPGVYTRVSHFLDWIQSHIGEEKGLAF
T9 sequence (P06869 21-178 partner limits assumed): as the sequence (P06869 21-178 partner limits assumed) above
Text: as §1, §2, §3

huPA-H99Y [3] = target: T1, huPA-H99Y; assay: Surface plasmon resonance analysis of peptide binding to huPA-H99Y; conditions: SPR
Procedure: (§4) Surface plasmon resonance (SPR) analysis
(§5) To determine the equilibrium binding constants (KD), the association rate constants (kon) and dissociation rate constants (koff) for peptide binding to uPA, surface plasmon resonance analysis was performed on a Biacore T200 instrument (Biacore, Uppsala, Sweden). A CM5 chip was coupled with the uPA variant (muPA or huPAH99Y) to be analysed, by injecting a concentration of 30 µg/mL uPA in immobilization buffer (10 mM sodium acetate, pH 5.0), aiming for an immobilised level of approximately 500 response units (RU). Immobilisation was followed by surface blocking with ethanolamine. A reference cell was prepared in the same way, without coupling of uPA. Mupain-1 variants in HBS with 0.1% BSA, in a dilution series, were injected at a flow rate of 30 µL per min during 60 s at 25°C. Subsequently, the dissociation was monitored during 600 s. Kinetic constants (k on and k off) were calculated with the Biacore Evaluation Software, using the 1∶1 kinetic fit. The K D values were calculated as k off /k on.

muPA = target: T10, muPA (Mus musculus, UniProt P06869); assay: Surface plasmon resonance analysis of peptide binding to muPA; design: species or system murine; conditions: SPR, 25°C, pH 7.4
T10 construct: To ensure that the uPAs purified from the conditioned media were completely in the two-chain form, they were treated with plasmin; hexa-His (C); made in house; host or cells: HEK293 6E suspension cells
T10 sequence (P06869 180-433 limits assumed): as the sequence (P06869 180-433 limits assumed) above
T10 sequence (P06869 21-178 partner limits assumed): as the sequence (P06869 21-178 partner limits assumed) above
Procedure: as §4, §5

huPA-H99Y [4] = target: T11, huPA-H99Y (Homo sapiens, UniProt P00749, C299A/H272Y/N322Q); assay: Isothermal titration calorimetry for binding to huPA-H99Y catalytic domain; conditions: ITC, 25°C, pH 7.4
T11 construct: recombinant uPA catalytic domain (residues 159–411), harbouring a H99Y mutation; made in house; host or cells: Pichia pastoris X-33 (secreted)
Procedure: For these experiments, we used the catalytic domain of huPA-H99Y expressed in and purified from Pichia pastoris strain X-33 (see above). The protein was dissolved in and dialysed against a buffer of 20 mM sodium phosphate, pH 7.4, 140 mM NaCl. The protein concentration was determined by absorbance at 280 nm, using an extinction coefficient of 43810 M^−1cm^−1. The peptides were dissolved in the above-mentioned buffer. All isothermal titration calorimetry experiments were performed with a MicroCal^TM ITC200 instrument equilibrated to a temperature of 25°C (298oK). The concentration of uPA-H99Y catalytic domain used in the 200 µl sample cell was 5–50 µM, depending on the affinity of the ligand. Titrations were performed by injecting 2 µl of the ligand until the total syringe volume of 40 µl was spent. Titration of ligand into buffer was performed to obtain buffer correction. The equilibrium association constant KA and the reaction enthalpy ΔH were calculated by fitting the integrated titration peaks using a one-binding-site model in the ITC ORIGIN7 programme package. The following formulas for Gibbs free energy ΔG were used to analyse the measured energies
[drawing 4] (4) where R is the gas constant and T the absolute temperature. ΔS, the entropic change during the reaction, was calculated using equations 3 and 4 and the measured K A and ΔH values.

huPA-H99Y Q192A = huPA-H99Y Q192A (Homo sapiens, UniProt P00749, H272Y/Q373A); assay: Ki for inhibition of huPA-H99Y-Q192A, chromogenic substrate; format: biochemical; design: To ensure that the uPAs purified from the conditioned media were completely in the two-chain form, they were treated with plasmin; hexa-His (C); made in house; host or cells: HEK293 6E suspension cells; conditions: 37°C; means ± S.D.; read-out: K i for inhibition of huPA-H99Y-Q192A
Text: as §1, §2, §3

huPA-H99Y K143A = target: T12, huPA-H99Y K143A (Homo sapiens, UniProt P00749, H272Y/K320A); assay: Ki for inhibition of huPA-H99Y-K143A, chromogenic substrate; format: biochemical; conditions: 37°C; means ± S.D.; read-out: K i for inhibition of huPA-H99Y-K143A
T12 construct: To ensure that the uPAs purified from the conditioned media were completely in the two-chain form, they were treated with plasmin; hexa-His (C); made in house; host or cells: HEK293 6E suspension cells
Text: as §1, §2, §3

huPA-H99Y [5] = target: T1, huPA-H99Y; conditions: 37°C; means ± S.D.; starred values reproduced from previous publications; ref Andersen et al., 2008; Hosseini et al., 2011; read-out: K i for inhibition of huPA-H99Y; cited from earlier work
muPA wt [6] = target: T4, muPA wt; conditions: means ± S.D.; starred values reproduced from previous publications; ref Andersen et al., 2008; Hosseini et al., 2011; read-out: K i for inhibition of muPA wt; cited from earlier work
[7] = 25°C, pH 7.4, calculated as k off/k on, read-out: K D, huPA-H99Y

Structure (SMILES)	Ki (huPA-H99Y R35A)	Ki (huPA-H99Y V41A)	Ki (muPA K41A)	Ki (muPA Y99A)	Ki (muPA K143A)	Ki (muPA S190A)	Ki (muPA V213T)	k off, huPA-H99Y (huPA-H99Y [3]; 25°C, pH 7.4)	k on, huPA-H99Y (huPA-H99Y [3]; 25°C, pH 7.4)	Kd (huPA-H99Y [3]; [7])	k off, muPA (muPA)	k on, muPA (muPA)	Ki (huPA-H99Y Q192A)	further results
CC(=O)N[C@H]1CSSC[C@@H](C(N)=O)NC(=O)[C@H](C)NC(=O)[C@H](CC(C)C)NC(=O)[C@H](Cc2ccc(O)cc2)NC(=O)[C@H](Cc2ccc(NC(=N)N)cc2)NC(=O)[C@H](CO)NC(=O)[C@H](Cc2ccc(O)cc2)NC(=O)[C@H](C)NC(=O)[C@@H]2CCCN2C1=O [Mupain-1-12 D9A, CPAYS[4-guanidino-phenyl-alanine]YLAC] (Ac-CPAYS[Phe(4-guanidino)]YLAC-NH2; disulfide 1-10; N-terminus assumed)	231 ± 78 nM	478 ± 137 nM	91 ± 7 nM	5890 ± 1310 nM	1000 ± 30 nM	3520 ± 500 nM	166 ± 75 nM	7.94±0.39 (3) s^-1, ×10^2	5.93±0.33 (3) M^-1s^-1, ×10^-5	134 ± 2 nM	3.94±0.30 (3) s^−1, ×10^2	2.42±1.01 (3) M^−1s^−1, ×10^−5	438 ± 79 nM	Ki (huPA-H99Y [1]): 186 ± 36 nM; Ki (muPA wt [2]): 190 ± 10 nM; Kd (muPA; calculated as k off/k on, read-out: K D, muPA): 177 ± 51 nM; Kd (huPA-H99Y [4]): 138 ± 47 nM; N (huPA-H99Y [4]): 0.88±0.01 (3); TΔS (huPA-H99Y [4]): −18.9±5.1 (3) ^1 kJ/mole; ΔG (huPA-H99Y [4]): −39.2±0.8 (3) ^1 kJ/mole; ΔH (huPA-H99Y [4]): −60.1±5.4 (3) ^1 kJ/mole
CC(=O)N[C@H]1CSSC[C@@H](C(N)=O)NC(=O)[C@H](CC(=O)O)NC(=O)[C@H](CC(C)C)NC(=O)[C@H](Cc2ccc(O)cc2)NC(=O)[C@H](Cc2ccc(NC(=N)N)cc2)NC(=O)[C@H](CO)NC(=O)[C@H](Cc2ccc(O)cc2)NC(=O)[C@H](C)NC(=O)[C@@H]2CCCN2C1=O [Mupain-1-12, CPAYS[4-guanidino-phenyl-alanine]YLDC] (Ac-CPAYS[Phe(4-guanidino)]YLDC-NH2; disulfide 1-10)	3260 ± 1040 nM	1600 ± 540 nM	1720 ± 240 nM	5200 ± 60 nM	1000 ± 40 nM	2300 ± 460 nM	86 ± 30 nM	24.6±1.2 (4) s^-1, ×10^2	2.06±0.15 (4) M^-1s^-1, ×10^-5	1210 ± 130 nM	1.92±0.63 (4) s^−1, ×10^2	1.56±0.95 (4) M^−1s^−1, ×10^−5	2350 ± 740 nM	Ki (huPA-H99Y K143A): 2140 ± 780 nM; Kd (huPA-H99Y [3]; huPA-H99Y immobilized on CM5 chip, single example (S3 Fig), read-out: KD of fitted curve, representative sensorgram): 1320 nM; koff (huPA-H99Y [3]; huPA-H99Y immobilized on CM5 chip, single example (S3 Fig), read-out: koff of fitted curve, representative sensorgram): 0.248 s⁻¹; kon (huPA-H99Y [3]; huPA-H99Y immobilized on CM5 chip, single example (S3 Fig), read-out: kon of fitted curve, representative sensorgram): 188000 M⁻¹ s⁻¹; Ki (huPA-H99Y [5]): 1860 ± 740 nM; Ki (muPA wt [6]): 280 ± 20 nM
